HELM strings list units from the 5' end as sugar, base in round brackets, then linkage (d deoxyribose, r ribose, m 2'-O-methyl, p phosphodiester). Strings are as the collection lists them, not checked against the first reports. ss, as = sense and antisense strand; [lna] = locked nucleic acid (LNA); [una] = unlocked nucleic acid; [hna] = hexitol nucleic acid; [s4r] = 4'-thioribose; [fl2r] = 2'-fluoro
Also: test system not given here.

For the data set the following is noted: siRNA.
For “RNA1{r(A)p.r(U)p.r(C)p.r(C)p.m(U)p.r(G)p.m(C)p.r(A)p.r(G)p.r(A)p.r(A)p.r(G)p.r(A)p.r(A)p.r(G)p.r(C)p.r(C)p.r(U)p.r(C)p.r(T)p.r(T)}|RNA2{r(G)p.r(A)p.r(G)p.r(G)p.r(C)p.r(U)p.r(U)p.r(C)p.r(U)p.r(U)p.r(C)p.r(U)p.r(G)p.r(C)p.r(A)p.r(G)p.r(G)p.r(A)p.r(U)p.r(T)p.r(T)}$$$RNA1{StrandType:ss}|RNA2{StrandType:as}$”, the target mRNA knockdown was 74%. To “RNA1{r(C)p.r(U)p.r(U)p.r(A)p.r(C)p.r(G)p.r(C)p.r(U)p.r(G)p.r(A)p.r(G)p.r(U)p.r(A)p.r(C)p.r(U)p.r(U)p.r(C)p.r(G)p.r(A)p.r(T)p.r(T)}|RNA2{r(U)p.r(C)p.r(G)p.r(A)p.[lna](A)p.r(G)p.r(U)p.r(A)p.r(C)p.r(U)p.r(C)p.r(A)p.r(G)p.r(C)p.r(G)p.r(U)p.r(A)p.r(A)p.r(G)p.r(T)p.r(T)}$$$RNA1{StrandType:ss}|RNA2{StrandType:as}$” belongs 83%; to “RNA1{m(A)p.r(U)p.m(C)p.r(A)p.m(G)p.r(A)p.m(G)p.r(G)p.m(G)p.r(A)p.m(G)p.r(G)p.m(U)p.r(C)p.m(U)p.r(U)p.m(A)p.r(G)p.m(A)p.r(T)p.r(T)}|RNA2{r(U)p.r(C)p.r(U)p.r(A)p.r(A)p.m(G)p.r(A)p.r(C)p.r(C)p.r(U)p.r(C)p.r(C)p.r(C)p.r(U)p.m(C)p.r(U)p.m(G)p.r(A)p.m(U)p.r(T)p.r(T)}$$$RNA1{StrandType:ss}|RNA2{StrandType:as}$”, 19%; to “RNA1{r(C)p.r(C)p.r(G)p.r(A)p.r(A)p.r(G)p.r(A)p.r(C)p.r(G)p.m(A)p.m(A)p.r(G)p.r(C)p.m(U)p.r(A)p.m(U)p.r(G)p.r(A)p.r(A)p.r(T)p.r(T)}|RNA2{r(U)p.r(U)p.m(C)p.r(A)p.m(U)p.r(A)p.r(G)p.r(C)p.r(U)p.r(U)p.r(C)p.r(G)p.r(U)p.r(C)p.r(U)p.r(U)p.r(C)p.r(G)p.r(G)p.r(T)p.r(T)}$$$RNA1{StrandType:ss}|RNA2{StrandType:as}$”, 69%. To “RNA1{[fl2r](U)p.r(C)p.[fl2r](C)p.r(U)p.[fl2r](C)p.r(G)p.[fl2r](U)p.r(C)p.[fl2r](G)p.r(U)p.[fl2r](C)p.r(U)p.[fl2r](G)p.r(U)p.[fl2r](U)p.r(C)p.[fl2r](U)p.r(A)p.[fl2r](A)p.r(T)p.r(T)}|RNA2{r(U)p.r(U)p.r(A)p.r(G)p.r(A)p.r(A)p.[fl2r](C)p.r(A)p.r(G)p.r(A)p.[fl2r](C)p.r(G)p.r(A)p.[fl2r](C)p.r(G)p.r(A)p.r(G)p.r(G)p.r(A)p.r(T)p.r(T)}$$$RNA1{StrandType:ss}|RNA2{StrandType:as}$” belongs 49%.

For the substance “RNA1{r(G)p.r(U)p.r(A)p.r(U)p.r(G)p.r(A)p.r(C)p.r(C)p.r(G)p.r(A)p.r(C)p.r(U)p.r(A)p.r(C)p.r(G)p.r(C)p.r(G)p.r(U)p.r(A)p.r(T)p.r(T)}|RNA2{r(U)p.r(U)p.r(C)p.r(A)p.r(G)p.r(U)p.r(G)p.r(U)p.r(G)p.r(A)p.r(U)p.r(G)p.[una](A)p.r(C)p.r(A)p.r(C)p.r(U)p.r(U)p.r(G)p.r(T)p.r(T)}$$$RNA1{StrandType:ss}|RNA2{StrandType:as}$”, the target mRNA knockdown was 74%. To “RNA1{m(C)p.r(C)p.m(U)p.r(C)p.m(C)p.r(C)p.m(C)p.r(A)p.m(U)p.r(C)p.m(C)p.r(C)p.m(C)p.r(U)p.m(U)p.r(U)p.m(U)p.r(A)p.m(A)p.r(T)p.r(T)}|RNA2{r(U)p.r(U)p.r(A)p.r(A)p.r(A)p.r(A)p.r(G)p.r(G)p.r(G)p.r(G)p.r(A)p.r(U)p.m(G)p.r(G)p.m(G)p.r(G)p.m(A)p.r(G)p.m(G)p.r(T)p.r(T)}$$$RNA1{StrandType:ss}|RNA2{StrandType:as}$” belongs 48%; to “RNA1{r(C)p.m(U)p.r(A)p.r(G)p.r(U)p.r(C)p.r(G)p.r(A)p.r(A)p.r(A)p.r(G)p.r(A)p.r(A)p.r(A)p.r(A)p.r(C)p.r(G)p.r(G)p.r(G)p.r(T)p.r(T)}|RNA2{r(C)p.r(C)p.r(C)p.r(G)p.r(U)p.r(U)p.r(U)p.r(U)p.r(C)p.r(U)p.r(U)p.r(U)p.r(C)p.r(G)p.r(A)p.r(C)p.m(U)p.r(A)p.r(G)p.r(T)p.r(T)}$$$RNA1{StrandType:ss}|RNA2{StrandType:as}$”, 56%; to “RNA1{r(A)p.r(A)p.r(G)p.r(G)p.r(A)p.r(G)p.r(A)p.m(U)p.m(C)p.r(A)p.r(A)p.m(C)p.r(A)p.m(U)p.m(U)p.m(U)p.m(U)p.m(C)p.r(A)p.r(T)p.r(T)}|RNA2{m(U)p.r(G)p.r(A)p.r(A)p.r(A)p.r(A)p.m(U)p.r(G)p.m(U)p.m(U)p.r(G)p.r(A)p.m(U)p.m(C)p.m(U)p.m(C)p.m(C)p.m(U)p.m(U)p.r(T)p.r(T)}$$$RNA1{StrandType:ss}|RNA2{StrandType:as}$”, 37%. Next, “RNA1{m(A)p.r(A)p.m(G)p.r(G)p.m(A)p.r(A)p.m(C)p.r(G)p.m(G)p.r(G)p.m(G)p.r(A)p.m(C)p.r(A)p.m(C)p.r(U)p.m(U)p.r(A)p.m(C)p.r(T)p.r(T)}|RNA2{r(G)p.r(U)p.r(A)p.r(A)p.r(G)p.r(U)p.r(G)p.r(U)p.r(C)p.r(C)p.r(C)p.r(C)p.r(G)p.r(U)p.r(U)p.r(C)p.r(C)p.r(U)p.r(U)p.r(T)p.r(T)}$$$RNA1{StrandType:ss}|RNA2{StrandType:as}$”: 12%; “RNA1{[hna](G)p.[hna](A)p.[hna](C)p.r(G)p.r(U)p.r(A)p.r(A)p.r(A)p.r(C)p.r(G)p.r(G)p.r(C)p.r(C)p.r(A)p.r(C)p.r(A)p.r(A)p.[hna](G)p.[hna](U)p.[hna](U)p.d(T)}|RNA2{[fl2r](A)p.m(C)p.[fl2r](U)p.m(U)p.[fl2r](G)p.m(U)p.[fl2r](G)p.m(G)p.[fl2r](C)p.m(C)p.[fl2r](G)p.m(U)p.[fl2r](U)p.m(U)p.[fl2r](A)p.m(C)p.[fl2r](G)p.m(U)p.[fl2r](C)p.m(G)p.[fl2r](C)}$$$RNA1{StrandType:ss}|RNA2{StrandType:as}$”: 81.8%. Substance “RNA1{m(A)p.m(A)p.m(G)p.r(G)p.r(A)p.m(G)p.m(A)p.m(U)p.r(C)p.r(A)p.r(A)p.m(C)p.m(A)p.m(U)p.r(U)p.r(U)p.m(U)p.m(C)p.m(A)p.r(T)p.r(T)}|RNA2{m(U)p.m(G)p.m(A)p.r(A)p.r(A)p.m(A)p.m(U)p.m(G)p.r(U)p.r(U)p.r(G)p.m(A)p.m(U)p.m(C)p.r(U)p.r(C)p.m(C)p.m(U)p.m(U)p.r(T)p.r(T)}$$$RNA1{StrandType:ss}|RNA2{StrandType:as}$” yielded a target mRNA knockdown of 45%. Turning to “RNA1{r(A)p.r(A)p.m(U)p.r(A)p.r(A)p.r(G)p.m(C)p.r(A)p.r(G)p.r(C)p.r(U)p.r(C)p.r(G)p.r(C)p.r(G)p.r(C)p.r(U)p.r(C)p.r(C)p.r(T)p.r(T)}|RNA2{r(G)p.r(G)p.r(A)p.r(G)p.r(C)p.r(G)p.r(C)p.r(G)p.r(A)p.r(G)p.r(C)p.r(U)p.r(G)p.r(C)p.r(U)p.m(U)p.r(A)p.r(U)p.r(U)p.r(T)p.r(T)}$$$RNA1{StrandType:ss}|RNA2{StrandType:as}$”, the target mRNA knockdown was found to be 54%. Regarding “RNA1{r(C)p.r(G)p.r(U)p.r(A)p.r(C)p.r(G)p.r(C)p.r(G)p.r(G)p.r(A)p.r(A)p.r(U)p.r(A)p.r(C)p.r(U)p.r(U)p.r(C)p.r(G)p.r(A)p.r(T)p.r(T)}|RNA2{r(U)p.[s4r](C)p.r(G)p.r(A)p.r(A)p.r(G)p.r(U)p.r(A)p.r(U)p.r(U)p.[s4r](C)p.[s4r](C)p.r(G)p.[s4r](C)p.r(G)p.r(U)p.r(A)p.[s4r](C)p.r(G)p.r(T)p.r(T)}$$$RNA1{StrandType:ss}|RNA2{StrandType:as}$”, the target mRNA knockdown is 68.5%. To “RNA1{r(A)p.r(U)p.r(C)p.r(U)p.r(G)p.r(A)p.r(A)p.r(G)p.r(A)p.r(A)p.r(G)p.r(G)p.r(A)p.r(G)p.r(A)p.r(A)p.r(A)p.r(A)p.r(A)p.d(T)p.d(T)}|RNA2{[lna](T)p.r(U)p.r(U)p.r(U)p.r(U)p.r(C)p.r(U)p.r(C)p.r(C)p.r(U)p.r(U)p.r(C)p.r(U)p.r(U)p.r(C)p.r(A)p.r(G)p.r(A)p.r(U)p.[lna](T)p.[lna](T)}$$$RNA1{StrandType:ss}|RNA2{StrandType:as}$” belongs 45%. Next, “RNA1{r(G)p.r(U)p.r(C)p.m(U)p.r(A)p.r(U)p.r(G)p.r(C)p.r(C)p.r(A)p.r(A)p.r(G)p.r(A)p.r(A)p.r(G)p.r(G)p.r(G)p.r(A)p.r(G)p.r(T)p.r(T)}|RNA2{r(C)p.r(U)p.r(C)p.r(C)p.r(C)p.r(U)p.r(U)p.r(C)p.r(U)p.r(U)p.r(G)p.r(G)p.r(C)p.r(A)p.m(U)p.r(A)p.r(G)p.r(A)p.r(C)p.r(T)p.r(T)}$$$RNA1{StrandType:ss}|RNA2{StrandType:as}$”: 76%; “RNA1{r(A)p.r(G)p.r(G)p.r(A)p.r(G)p.r(A)p.r(C)p.r(C)p.r(G)p.[fl2r](U)p.r(G)p.r(A)p.[fl2r](C)p.r(A)p.r(U)p.r(U)p.r(U)p.r(C)p.r(G)p.r(T)p.r(T)}|RNA2{r(C)p.r(G)p.r(A)p.r(A)p.r(A)p.[fl2r](U)p.r(G)p.r(U)p.r(C)p.r(A)p.r(C)p.r(G)p.r(G)p.r(U)p.r(C)p.r(U)p.r(C)p.r(C)p.r(U)p.r(T)p.r(T)}$$$RNA1{StrandType:ss}|RNA2{StrandType:as}$”: 72%. For the substance “RNA1{r(C)p.r(U)p.r(U)p.r(A)p.r(C)p.r(G)p.r(C)p.r(U)p.r(G)p.r(A)p.r(G)p.r(U)p.r(A)p.r(C)p.r(U)p.r(U)p.r(C)p.r(G)p.r(A)p.r(T)p.r(T)}|RNA2{r(U)p.r(C)p.r(G)p.r(A)p.r(A)p.r(G)p.r(U)p.r(A)p.r(C)p.r(U)p.r(C)p.r(A)p.r(G)p.r(C)p.r(G)p.r(U)p.r(A)p.r(A)p.[lna](G)p.r(T)p.r(T)}$$$RNA1{StrandType:ss}|RNA2{StrandType:as}$”, the target mRNA knockdown is 88%. To “RNA1{r(G)p.r(G)p.r(C)p.r(U)p.[fl2r](U)p.r(A)p.r(G)p.r(U)p.r(C)p.r(A)p.r(C)p.r(U)p.r(C)p.r(C)p.r(U)p.r(C)p.r(U)p.r(U)p.r(C)p.r(T)p.r(T)}|RNA2{r(G)p.r(A)p.r(A)p.r(G)p.r(A)p.r(G)p.r(G)p.r(A)p.r(G)p.r(U)p.r(G)p.r(A)p.r(C)p.[fl2r](U)p.r(A)p.r(A)p.r(G)p.r(C)p.r(C)p.r(T)p.r(T)}$$$RNA1{StrandType:ss}|RNA2{StrandType:as}$” belongs 69%; to “RNA1{[lna](G)p.r(C)p.r(A)p.r(G)p.r(C)p.r(A)p.r(C)p.r(G)p.r(A)p.r(C)p.r(U)p.r(U)p.r(C)p.r(U)p.r(U)p.r(C)p.r(A)p.r(A)p.r(G)p.r(U)p.r(U)}|RNA2{r(C)p.m(U)p.r(U)p.r(G)p.r(A)p.r(A)p.r(G)p.r(A)p.r(A)p.r(G)p.r(U)p.r(C)p.r(G)p.r(U)p.r(G)p.r(C)p.r(U)p.r(G)p.r(C)p.r(U)p.r(U)}$$$RNA1{StrandType:ss}|RNA2{StrandType:as}$”, 68.6%.

The values are drawn from the OligoGym collection.
